Data taken from US5578608A, “Symmetrical diaryl and diheteroanyl cis epoxy alkanes antiviral compounds” (Eli Lilly and Company, priority 1995, dated 1996).
Where two headings read alike, the source gives them in different places.

Biological target: T1, HIV-1 protease (Human immunodeficiency virus type 1 group M subtype B, UniProt P04585)
T1 construct: made in house; host or cells: E. coli K12 L507/pHP10D (NRRL B-18560)
Assay: biochemical
Conditions: for inhibition at 1 µg/mL: at 1000 ng/ml, read-out: Fluorescence Assay, given as ICxx (1000): xx is the percent inhibition
Protocol: A culture of E. coli K12 L507/pHP10D was grown to mid-log phase at 32° C. in LB media containing 12.5 μg/ml tetracycline. The cultivation temperature was quickly elevated to 40° C. to induce gene expression, and the cells were allowed to grow for 2.5 hours at this temperature before the culture was quickly chilled on ice. The cells were centrifuged and the cell pellet was resuspended in 20 mL 50 mmol MES buffer (pH 6.0) containing 1 mmol EDTA, 1 mmol DTT, 1 mmol PMSF and 10% glycerol ("Buffer A"). Cells were lysed by sonication using a Fischer Model 300 Dismembrator and a microtip probe. Following centrifugation at 27,000 x g, the supernatant was diluted to a total volume of 60 mL with Buffer A and loaded onto a 2.0×19 cm QAE-Sepharose column (1 mL/min, 4° C.), that had been equilibrated in Buffer A. The column was washed isocratically for 180 min and then eluted with a gradient eluent of 0-1.0M NaCl in Buffer A over 120 min. Enzymatic activity was measured by HPLC using the synthetic peptide SQNYPIV as described in Margolin et al., Biochem. Biophys. Res. Commun., […], 554-560 (1990); the production of the p1 peptide (SQNY) was measured.
N^a -Biotin-[…]N^e -FITC)-OH SEQ ID NO: 1
The following buffers and solutions are used in the Fluorescence HIV-1 Protease Inhibitor Assay:
To each well of a round bottom, 96-well plate is added 20 μL of the Enzyme Solution followed by 10 μL of the compound to be evaluated in a 20% aqueous dimethylsulfoxide solution. Purified HIV-1 protease was obtained as described above. The resulting solution is incubated for one hour at room temperature and then 20 μL of a solution containing the substrate, N^a -Biotin-[…]N^e-FITC)-OH, in MES-ALB buffer ([…]) is added to each well. The solutions are then incubated for 16 hours at room temperature and then each well is diluted with 150 μL of MES-ALB buffer.
To each well of a second round bottom, 96-well Pandex plate is added 25 uL of the Avidin Coated Beads Solution. Then, to each well is added 25 μL of the diluted incubation solutions, prepared above. The solutions are mixed thoroughly and the plates are loaded into a Pandex® machine, washed, evacuated and read. Sample detection was performed by excitation at 485 nm, reading the resulting epifluorescence at 535 nm.

[1] = read-out: Fluorescence Assay average IC50 (marked *) (converted)
[2] = read-out: Fluorescence Assay IC50 (converted)

Row | SMILES | IC50 [2] [nM] | also measured
1 | CC[C@H](C)[C@H](NC(=O)N(C)Cc1ccc2ccccc2n1)C(=O)N[C@@H](Cc1ccccc1)[C@@H]1O[C@@H]1[C@H](Cc1ccccc1)NC(=O)[C@@H](NC(=O)N(C)Cc1ccc2ccccc2n1)[C@@H](C)CC [Example 19, 1,6-Diphenyl-2(S),5(S)-di[N-[2(S)-N[[N(methyl)-N(quinolin-2-ylmethyl)amino]carbonyl]amino-3(S)methylpentanoyl]amino]-3,4-cis-epoxyhexane] | – | IC50 [1]: 166 nM
2 | CC[C@H](NC(=O)OCc1ccccc1)C(=O)N[C@@H](Cc1ccccc1)[C@@H]1O[C@@H]1[C@H](Cc1ccccc1)NC(=O)[C@H](CC)NC(=O)OCc1ccccc1 [Example 2, 1,6-Diphenyl-2(S),5(S)-di[N-[2(S)-N(benzyloxycarbonyl)aminobutanoyl]amino]-3,4-cis-epoxyhexane] | 14.4 | –
3 | CC(C)C[C@H](NC(=O)OCc1ccccn1)C(=O)N[C@@H](Cc1ccccc1)[C@@H]1O[C@@H]1[C@H](Cc1ccccc1)NC(=O)[C@H](CC(C)C)NC(=O)OCc1ccccn1 [Example 13, 1,6-Diphenyl-2(S),5(S)-di[N-[2(S)-N(pyrid-2-ylmethoxycarbonyl)amino-4-methylpentanoyl]amino]-3,4-cis-epoxyhexane] | 2880 | –
4 | CCC[C@H](NC(=O)N(C)Cc1ccc2ccccc2n1)C(=O)N[C@@H](Cc1ccccc1)[C@@H]1O[C@@H]1[C@H](Cc1ccccc1)NC(=O)[C@H](CCC)NC(=O)N(C)Cc1ccc2ccccc2n1 [Example 21, 1,6-Diphenyl-2(S),5(S)-di[N-[2(S)-N[[N(methyl)-N(quinolin-2-ylmethyl)amino]carbonyl]aminopentanoyl]amino]-3,4-cis epoxyhexane] | 66.1 | –
5 | CC[C@H](C)[C@H](NC(=O)OCc1ccc2ccccc2n1)C(=O)N[C@@H](Cc1ccccc1)[C@@H]1O[C@@H]1[C@H](Cc1ccccc1)NC(=O)[C@@H](NC(=O)OCc1ccc2ccccc2n1)[C@@H](C)CC [Example 15, 1,6-Diphenyl-2(S),5(S)-di[N-[2(S)-N[(quinolin-2-ylmethoxy)carbonyl]amino-3(S)-methylpentanoyl]amino]-3,4-cis-epoxyhexane] | 27.3 | –
6 | O=C(N[C@@H](Cc1c[nH]cn1)C(=O)N[C@@H](Cc1ccccc1)[C@@H]1O[C@@H]1[C@H](Cc1ccccc1)NC(=O)[C@H](Cc1c[nH]cn1)NC(=O)OCc1ccccc1)OCc1ccccc1 [Example 9, 1,6-Diphenyl-2(S),5(S)-di[N-[2(S)-N(benzyloxycarbonyl)amino-3-imidazol-4-yl-propanoyl]amino]-3,4-cis-epoxyhexane] | 84.2 | –
7 | CC(C)[C@H](NC(=O)OCc1ccc2ccccc2n1)C(=O)N[C@@H](Cc1ccccc1)[C@@H]1O[C@@H]1[C@H](Cc1ccccc1)NC(=O)[C@@H](NC(=O)OCc1ccc2ccccc2n1)C(C)C [Example 4, 1,6-Diphenyl-2(S),5(S)-di[N-[2(S)-N[(quinolin-2-ylmethoxy)carbonyl]amino-3-methylbutanoyl]amino]-3,4-cis-epoxyhexane] | – | IC50 [1]: 59.9 nM
8 | CN(Cc1ccc2ccccc2n1)C(=O)N[C@@H](CC#N)C(=O)N[C@@H](Cc1ccccc1)[C@@H]1O[C@@H]1[C@H](Cc1ccccc1)NC(=O)[C@H](CC#N)NC(=O)N(C)Cc1ccc2ccccc2n1 [Example 27, 1,6-Diphenyl-2(S),5(S)-di [N-[2(S)-N[[N(methyl)-N(quinolin-2-ylmethyl)amino]carbonyl]amino-3-cyanopropanoyl]amino]-3,4-cis-epoxyhexane] | 30.7 | –
9 | CCCC[C@H](NC(=O)N(C)Cc1ccc2ccccc2n1)C(=O)N[C@@H](Cc1ccccc1)[C@@H]1O[C@@H]1[C@H](Cc1ccccc1)NC(=O)[C@H](CCCC)NC(=O)N(C)Cc1ccc2ccccc2n1 [Example 22, 1,6-Diphenyl-2(S),5(S)-di[N-[2(S)-N[[N(methyl)-N(quinolin-2-ylmethyl)amino]carbonyl]aminohexanoyl]amino]-3,4-cis-epoxyhexane] | 437 | –
10 | CC(C)[C@H](NC(=O)OCc1ccc2cccc(F)c2n1)C(=O)N[C@@H](Cc1ccccc1)[C@@H]1O[C@@H]1[C@H](Cc1ccccc1)NC(=O)[C@@H](NC(=O)OCc1ccc2cccc(F)c2n1)C(C)C [Example 17, 1,6-Diphenyl-2(S),5(S)-di[N-[2(S)-N[(8-fluoroquinolin-2-ylmethoxy)carbonyl]amino-3-methylbutanoyl]amino]-3,4-cis-epoxyhexane] | – | IC50 [1]: 23.1 nM
11 | CC(C)(C)C(NC(=O)OCc1cccnc1)C(=O)NC(Cc1ccccc1)C1OC1C(Cc1ccccc1)NC(=O)C(NC(=O)OCc1cccnc1)C(C)(C)C [Example 23, 1,6-Diphenyl-2(S),5(S)-di[N-[2(S)-N(pyrid-3-ylmethoxycarbonyl)amino-3,3-dimethylbutanoyl]amino]-3,4-cis-epoxyhexane] | – | Fluorescence Assay IC50 (16 h incubation at room temperature, MES-ALB buffer pH 5.5, normalized to a positive control): 0.497 µg/mL
12 | O=C(N[C@@H](Cn1cccn1)C(=O)N[C@@H](Cc1ccccc1)[C@@H]1O[C@@H]1[C@H](Cc1ccccc1)NC(=O)[C@H](Cn1cccn1)NC(=O)OCc1ccccc1)OCc1ccccc1 [Example 7, 1,6-Diphenyl-2(S),5(S)-di[N-[2(S)-N(benzyloxycarbonyl)amino-3-pyrazol-1-ylpropanoyl]amino]3,4-cis-epoxyhexane] | 8260 | –
13 | CC[C@H](NC(=O)N(C)Cc1ccccn1)C(=O)N[C@@H](Cc1ccc2ccccc2c1)[C@@H]1O[C@@H]1[C@H](Cc1ccc2ccccc2c1)NC(=O)[C@H](CC)NC(=O)N(C)Cc1ccccn1 [Example 34, 1,6-Dinaphth-2-yl-2(S),5(S)-di[N-[2(S)-N-[[N(methyl)-N (pyrid-2-ylmethyl)amino]carbonyl]aminobutanoyl]amino]-3,4-cis-epoxyhexane] | – | inhibition at 1 µg/mL: 34%
14 | N#CC[C@H](NC(=O)c1ccc2ccccc2n1)C(=O)N[C@@H](Cc1ccccc1)[C@@H]1O[C@@H]1[C@H](Cc1ccccc1)NC(=O)[C@H](CC#N)NC(=O)c1ccc2ccccc2n1 [Example 3, 1,6-Diphenyl-2(S),5(S)-di[N-[2(S)-N(quinolin-2-ylcarbonyl)amino-3-cyanopropanoyl]amino]-3,4-cis-epoxyhexane] | 5350 | –
15 | CC(C)[C@H](NC(=O)OCc1ccccn1)C(=O)N[C@@H](CCc1ccccc1)[C@@H]1O[C@@H]1[C@H](CCc1ccccc1)NC(=O)[C@@H](NC(=O)OCc1ccccn1)C(C)C [Example 36] | – | inhibition at 1 µg/mL: 26%
16 | C[C@H](NC(=O)OCc1ccccc1)C(=O)N[C@@H](Cc1ccccc1)[C@@H]1O[C@@H]1[C@H](Cc1ccccc1)NC(=O)[C@H](C)NC(=O)OCc1ccccc1 [Example 20, 1,6-Diphenyl-2(S),5(S)-di[N-[2(S)-N(benzyloxycarbonyl)amino]propanoyl]amino-3,4-cis-epoxyhexane] | 803 | –
17 | Cc1cccc(COC(=O)N[C@H](C(=O)N[C@@H](Cc2ccccc2)[C@@H]2O[C@@H]2[C@H](Cc2ccccc2)NC(=O)[C@@H](NC(=O)OCc2cccc(C)n2)C(C)C)C(C)C)n1 [Example 29, 1,6-Diphenyl-2(S),5(S)-di[N-[2(S)-N(6-methylpyrid-2-ylmethoxycarbonyl)amino-3-methylbutanoyl]amino]-3,4-cis-epoxyhexane] | 39.2 | –
18 | CC[C@H](NC(=O)N(C)Cc1ccc2ccccc2n1)C(=O)N[C@@H](Cc1ccccc1)[C@@H]1O[C@@H]1[C@H](Cc1ccccc1)NC(=O)[C@H](CC)NC(=O)N(C)Cc1ccc2ccccc2n1 [Example 18, 1,6-Diphenyl-2(S),5(S)-di[N-[2(S)-N-[[N(methyl)-N(quinolin-2-ylmethyl)amino]carbonyl]aminobutanoyl]amino]-3,4-cis-epoxyhexane] | – | IC50 [1]: 8.36 nM
19 | NC(=O)CC[C@H](NC(=O)OCc1ccccc1)C(=O)N[C@@H](Cc1ccccc1)[C@@H]1O[C@@H]1[C@H](Cc1ccccc1)NC(=O)[C@H](CCC(N)=O)NC(=O)OCc1ccccc1 [Example 12, 1,6-Diphenyl-2(S),5(S)-di[N-[2(S)-N(benzyloxycarbonyl)amino-4-carbamoylbutanoyl]amino]-3,4-cis-epoxyhexane] | 1730 | –
20 | CC(C)[C@H](NC(=O)OCc1ccccc1)C(=O)N[C@@H](Cc1ccccc1)[C@@H]1O[C@@H]1[C@H](Cc1ccccc1)NC(=O)[C@@H](NC(=O)OCc1ccccc1)C(C)C [Example 1, 1,6-Diphenyl-2(S),5(S)-di[N-[2(S)-N(benzyloxycarbonyl)amino-3-methyl-butanoyl]amino]-3,4-cis-epoxyhexane] | – | IC50 [1]: 212 nM
